Test results reported in the supplement of paper PMC10331698.
± gives the standard deviation of the averaged measurements.

How the values were obtained:
Assay in all cases: level (log10 ratio to DMSO vehicle control); higher = higher biomarker level / cell amount than vehicle control
[1] = compound: C=C(C)C(=O)OCCC(F)(F)C(F)(F)C(F)(F)C(F)(F)C(F)(C(F)(F)F)C(F)(F)F [(Perfluoro-5-methylhexyl)ethyl 2-methylprop-2-enoate]; details: in DMSO
Method: (§1)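 BioMAP Diversity Plus panel of 12 human primary cell co-culture systems (3C, 4H, LPS, SAg, BT, BF4T, BE3C, CASM3C, HDF3CGF, KF3CT, MyoF, Mphg). Compounds were added 1 h before stimulation and left for 24 h (MyoF 48 h; BT 72 h for soluble read-outs or 6 d for IgG). Biomarkers were read by ELISA, cytotoxicity by SRB, PBMC viability and proliferation by Alamar Blue. Each well value was divided by the mean of 8 DMSO control wells on the same plate and log10 transformed; duplicate blinded samples were tested at 4 concentrations.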

[2] = compound: FC(F)(F)C(F)(C(F)(F)F)C(F)(F)C(F)(F)CC1CO1 [3-(Perfluoro-3-methylbutyl)-1,2-propenoxide]; details: in DMSO
Method: as §1

[3] = compound: FC(F)(F)C(F)(F)C(F)(F)C(F)(F)C(F)(F)CCI [1-Iodo-1H,1H,2H,2H-perfluoroheptane]; details: in DMSO
Method: as §1

[4] = compound: NC(=O)C(F)(F)C(F)(F)C(F)(F)F [Heptafluorobutyramide]; details: in DMSO
Method: as §1

[5] = compound: O=C(O)C(F)(F)C(F)(F)C(F)(F)C(F)(F)F [Perfluoropentanoic acid]; details: in DMSO
Method: as §1

[6] = compound: O=C(O)C(F)(F)C(F)(F)C(F)(F)F [Perfluorobutanoic acid]; details: in DMSO
Method: as §1

[7] = compound: O=C(O)C(F)(F)C(F)(F)OC(F)(F)F [Perfluoro-3-methoxypropanoic acid]; details: in DMSO
Method: as §1

[8] = compound: OCCCC(F)(F)C(F)(F)C(F)(F)C(F)(F)C(F)(F)C(F)(F)C(F)(F)F [7:3 Fluorotelomer alcohol]; details: 6700 nM; in DMSO
Method: as §1

Row | Test System | level (log10) ([1]; 6700 nM) | level (log10) ([1]; 20000 nM) | level (log10) ([2]; 6700 nM) | level (log10) ([2]; 20000 nM) | level (log10) ([3]; 6700 nM) | level (log10) ([3]; 20000 nM) | level (log10) ([3]; 60000 nM) | level (log10) ([4]; 6700 nM) | level (log10) ([4]; 20000 nM) | level (log10) ([4]; 60000 nM) | level (log10) ([5]; 6700 nM) | level (log10) ([5]; 20000 nM) | level (log10) ([5]; 60000 nM) | level (log10) ([6]; 6700 nM) | level (log10) ([6]; 20000 nM) | level (log10) ([6]; 60000 nM) | level (log10) ([7]; 6700 nM) | level (log10) ([7]; 20000 nM) | level (log10) ([7]; 60000 nM) | level (log10) [8]
1 | SAg:CCL2/MCP-1 | -0.014 ± 0.018 | 0.0065 ± 0.033 | -0.0225 ± 0.039 | 0.004 ± 0.0085 | -0.005 ± 0.0099 | -0.0175 ± 0.0035 | -0.006 ± 0.038 | -0.0125 ± 0.015 | -0.011 ± 0.0099 | 0.0085 ± 0.037 | 0.0085 ± 0.021 | -0.0205 ± 0.011 | 0.023 ± 0.031 | -0.012 ± 0.0028 | -0.014 | 0.0175 ± 0.025 | -0.007 ± 0.013 | -0.0075 ± 0.0092 | -0.0035 ± 0.0078 | 0.003 ± 0.0014
2 | LPS:CD62E/E-Selectin | 0.006 ± 0.0099 | 0.0095 ± 0.012 | 0.0165 ± 0.0035 | 0.0245 ± 0.025 | 0.0045 ± 0.012 | 0.004 ± 0.0042 | -0.0005 ± 0.0064 | -0.0065 ± 0.022 | -0.0195 ± 0.016 | -0.0365 ± 0.035 | 0.01 ± 0.0057 | -0.004 ± 0.0071 | 0.015 ± 0.018 | -0.012 ± 0.018 | -0.01 ± 0.013 | -0.0085 ± 0.005 | -0.0015 ± 0.011 | -0.0075 ± 0.005 | 0.0105 ± 0.0035 | -0.0125 ± 0.016
3 | 3C:Proliferation | 0.004 ± 0.052 | -0.0305 ± 0.0021 | -0.014 ± 0.016 | -0.002 ± 0.042 | 0.001 ± 0.027 | -0.0465 ± 0.03 | -0.163 ± 0.052 | 0.006 ± 0.04 | 0.003 ± 0.051 | -0.006 ± 0.045 | -0.029 ± 0.028 | 0.011 | 0.0015 ± 0.046 | -0.0225 ± 0.084 | -0.02 ± 0.061 | 0.024 ± 0.042 | -0.0295 ± 0.056 | -0.023 ± 0.03 | -0.0135 ± 0.037 | -0.093 ± 0.095
4 | LPS:CXCL8/IL-8 | 0.006 ± 0.045 | 0.016 ± 0.047 | 0.0325 ± 0.043 | 0.045 ± 0.072 | 0.0065 ± 0.03 | 0.0135 ± 0.005 | 0.0145 ± 0.0021 | -0.01 ± 0.038 | -0.0025 ± 0.032 | 0.0115 ± 0.0078 | -0.0075 ± 0.00071 | -0.0095 ± 0.022 | 0.0245 ± 0.052 | -0.0055 ± 0.005 | -0.0165 ± 0.00071 | 0.0095 ± 0.011 | 0.0285 ± 0.035 | 0.018 ± 0.017 | 0.027 ± 0.0014 | -0.0305 ± 0.011
5 | LPS:CD40 | 0.07 ± 0.038 | -0.0015 ± 0.016 | -0.0195 ± 0.015 | -0.007 ± 0.034 | 0.0475 ± 0.061 | 0.056 ± 0.061 | 0.014 ± 0.078 | 0.0065 ± 0.022 | -0.004 ± 0.071 | 0.001 ± 0.059 | 0.0115 ± 0.011 | 0.0075 ± 0.022 | -0.0265 ± 0.013 | 0.0245 ± 0.061 | 0 ± 0.03 | -0.0095 ± 0.022 | 0.0045 ± 0.013 | 0.0095 ± 0.015 | 0.0135 ± 0.039 | 0.0345 ± 0.005
6 | BT:PBMC Cytotoxicity | 0.004 ± 0.0057 | 0.007 ± 0.021 | -0.0055 ± 0.023 | 0.005 ± 0.013 | -0.012 ± 0.03 | -0.0265 ± 0.028 | -0.024 ± 0.011 | 0.014 ± 0.0099 | 0.0025 ± 0.025 | 0.0105 ± 0.013 | 0.0075 ± 0.035 | -0.0055 ± 0.0078 | 0.0255 ± 0.013 | 0.003 ± 0.011 | 0.0255 ± 0.018 | -0.0175 ± 0.00071 | -0.0195 ± 0.061 | -0.0215 ± 0.019 | -0.0005 ± 0.029 | 0.0245 ± 0.035
7 | BT:sTNF-alpha | 0.0485 ± 0.1 | 0.0945 ± 0.03 | 0.0545 ± 0.076 | 0.0925 ± 0.093 | -0.02 ± 0.038 | 0.063 ± 0.055 | -0.114 ± 0.052 | 0.0705 ± 0.096 | -0.057 ± 0.025 | -0.0225 ± 0.0035 | -0.0575 ± 0.25 | 0.0875 ± 0.012 | 0.105 ± 0.04 | 0.019 ± 0.093 | 0.0875 ± 0.069 | 0.0305 ± 0.023 | 0.055 ± 0.035 | -0.0805 ± 0.084 | 0.0205 ± 0.17 | 0.009 ± 0.028
